# Source: patent US6989162B2, “Hepatoprotective agent of plant origin and a process thereof” (Council of Scientific & Industrial Research, priority 2003, dated 2006)
# Several values for one entry are separate records, joined by “and”; a condition that tells them apart may be missing. Identical values can stand only once.
# Legend:
# [1] = test system: CCl4 induced hepatic injury; experiment: Hepatoprotective potential against CCl4 induced hepatic injury in rodents (prophylactic); type: in vivo, Rodents (Albino rats, Wistar; Albino mice, Swiss); conditions: for % protection, GSH / % protection, LP / GSH (glutathione) / LP (lipid peroxidation): hepatic; for GSH (glutathione) / LP (lipid peroxidation) / ALP / Albumin / Bilirubin / GOT / GPT / TG: mean ± SE, six animals; for % protection, ALP / % protection, Albumin / % protection, Bilirubin / % protection, GOT / % protection, GPT / % protection, TG / ALP / Albumin / Bilirubin / GOT / GPT / TG: serum
# Text: The compound has been bioevaluated for hepatoprotective/antihepatotoxic activity by using a comprehensive study design annexed herewith as Annexure-2. The parameters studied during the bioevaluation to establish the bioefficacy and optimum dose were preferred using the kits (Clonital, Italy and Accurex Biomedical Pvt. Ltd Thane). The list of the parameters is given in Annexure-2 appended herewith. The dose response graphs with respect to different parameters in comparison with the standard drug with silymarin and glycyrrhizin are given in Annexure-3 appended herewith.
# Hepatoprotective activity (H) was calculated by the following equation: H=[1−(TC−V/VC−V)]×100
# Where TC, VC, and V are drug+toxin, vehicle+toxin and vehicle treated groups of animals respectively.
# [2] = Acteoside only (per-se), serum and hepatic parameters without toxin; type: in vivo, Rodents; conditions: 5 mg/kg, mean ± SE, six animals
# [3] = Effect on BP and respiration, I.V. in rat; type: in vivo; conditions: 30 μg, 100 μg, 300 μg and 1 mg I.V. in rat
# isolated rat colon = experiment: Histamine, 5-HT and Acetylcholine induced contraction on the isolated rat colon
smiles,measurement,setting,value
"CC1(C)[C@@H](O[C@H]2O[C@H](C(=O)O)[C@@H](O)[C@H](O)[C@H]2O[C@@H]2O[C@H](C(=O)O)[C@@H](O)[C@H](O)[C@H]2O)CC[C@]2(C)[C@H]3C(=O)C=C4[C@@H]5C[C@@](C)(C(=O)O)CC[C@]5(C)CC[C@@]4(C)[C@]3(C)CC[C@@H]12 [Glycyrrhizin, reference compound]","% protection, GSH",[1]; 100 mg/kg p.o. + CCl4,(53.55) %
same,"% protection, LP",[1]; 100 mg/kg p.o. + CCl4,(56.08) %
same,GSH (glutathione),[1]; 100 mg/kg p.o. + CCl4,5.96 ± 0.26 μ mole GSH/g liver
same,LP (lipid peroxidation),[1]; 100 mg/kg p.o. + CCl4,54.37 ± 4.82 n mole MDA/g liver
same,"% protection, ALP",[1]; 100 mg/kg p.o. + CCl4,(46.48) %
same,"% protection, Albumin",[1]; 100 mg/kg p.o. + CCl4,(38.57) %
same,"% protection, Bilirubin",[1]; 100 mg/kg p.o. + CCl4,(42.85) %
same,"% protection, GOT",[1]; 100 mg/kg p.o. + CCl4,(56.44) %
same,"% protection, GPT",[1]; 100 mg/kg p.o. + CCl4,(53.87) %
same,"% protection, TG",[1]; 100 mg/kg p.o. + CCl4,(42.07) %
same,ALP,[1]; 100 mg/kg p.o. + CCl4,55.63 ± 3.52 μ mole of p-nitrophenol formed/min/L
same,Albumin,[1]; 100 mg/kg p.o. + CCl4,3.30 ± 0.12 g %
same,Bilirubin,[1]; 100 mg/kg p.o. + CCl4,0.55 ± 0.04 mg %
same,GOT,[1]; 100 mg/kg p.o. + CCl4,494.27 ± 36.28 Units (μ mole pyruvate/min/L)
same,GPT,[1]; 100 mg/kg p.o. + CCl4,746.87 ± 49.77 Units (μ mole pyruvate/min/L)
same,TG,[1]; 100 mg/kg p.o. + CCl4,65.31 ± 3.69 mg %
"C[C@@H]1O[C@@H](O[C@@H]2[C@@H](O)[C@H](OCCc3ccc(O)c(O)c3)O[C@H](CO)[C@H]2OC(=O)/C=C/c2ccc(O)c(O)c2)[C@H](O)[C@H](O)[C@H]1O [Acteoside, β-(3′,4′-dihydroxyphenyl) ethyl —O-α-L-rhamnopyranosyl (1→3)-β-D-(4-O-caffeoyl)-glucopyranoside]","% protection, GSH",[1]; 0.625 mg/kg p.o. + CCl4,(27.86) %
same,"% protection, LP",[1]; 0.625 mg/kg p.o. + CCl4,(43.53) %
same,GSH (glutathione),[1]; 0.625 mg/kg p.o. + CCl4,4.66 ± 0.28 μ mole GSH/g liver
same,LP (lipid peroxidation),[1]; 0.625 mg/kg p.o. + CCl4,61.08 ± 3.39 n mole MDA/g liver
same,"% protection, ALP",[1]; 0.625 mg/kg p.o. + CCl4,(21.48) %
same,"% protection, Albumin",[1]; 0.625 mg/kg p.o. + CCl4,(21.43) %
same,"% protection, Bilirubin",[1]; 0.625 mg/kg p.o. + CCl4,(12.24) %
same,"% protection, GOT",[1]; 0.625 mg/kg p.o. + CCl4,(36.64) %
same,"% protection, GPT",[1]; 0.625 mg/kg p.o. + CCl4,(39.44) %
same,"% protection, TG",[1]; 0.625 mg/kg p.o. + CCl4,(17.63) %
same,ALP,[1]; 0.625 mg/kg p.o. + CCl4,66.80 ± 3.53 μ mole of p-nitrophenol formed/min/L
same,Albumin,[1]; 0.625 mg/kg p.o. + CCl4,3.06 ± 0.07 g %
same,Bilirubin,[1]; 0.625 mg/kg p.o. + CCl4,0.70 ± 0.03 mg %
same,GOT,[1]; 0.625 mg/kg p.o. + CCl4,673.82 ± 56.28 Units (μ mole pyruvate/min/L)
same,GPT,[1]; 0.625 mg/kg p.o. + CCl4,852.27 ± 47.93 Units (μ mole pyruvate/min/L)
same,TG,[1]; 0.625 mg/kg p.o. + CCl4,80.15 ± 3.53 mg %
same,overall percent protection with reference to all the parameters studied,"[1]; 1.25 mg upto 5 mg/kg, CCl4",40-85% and 40-80%
same,"% protection, GSH",[1]; 1.25 mg/kg p.o. + CCl4,(52.96) %
same,"% protection, LP",[1]; 1.25 mg/kg p.o. + CCl4,(59.38) %
same,GSH (glutathione),[1]; 1.25 mg/kg p.o. + CCl4,5.93 ± 0.32 μ mole GSH/g liver
same,LP (lipid peroxidation),[1]; 1.25 mg/kg p.o. + CCl4,52.61 ± 2.25 n mole MDA/g liver
same,"% protection, ALP",[1]; 1.25 mg/kg p.o. + CCl4,(38.72) %
same,"% protection, Albumin",[1]; 1.25 mg/kg p.o. + CCl4,(35.00) %
same,"% protection, Bilirubin",[1]; 1.25 mg/kg p.o. + CCl4,(34.69) %
same,"% protection, GOT",[1]; 1.25 mg/kg p.o. + CCl4,(55.43) %
same,"% protection, GPT",[1]; 1.25 mg/kg p.o. + CCl4,(51.01) %
same,"% protection, TG",[1]; 1.25 mg/kg p.o. + CCl4,(27.13) %
same,ALP,[1]; 1.25 mg/kg p.o. + CCl4,59.10 ± 3.09 μ mole of p-nitrophenol formed/min/L
same,Albumin,[1]; 1.25 mg/kg p.o. + CCl4,3.25 ± 0.14 g %
same,Bilirubin,[1]; 1.25 mg/kg p.o. + CCl4,0.59 ± 0.03 mg %
same,GOT,[1]; 1.25 mg/kg p.o. + CCl4,503.42 ± 48.95 Units (μ mole pyruvate/min/L)
same,GPT,[1]; 1.25 mg/kg p.o. + CCl4,787.56 ± 57.49 Units (μ mole pyruvate/min/L)
same,TG,[1]; 1.25 mg/kg p.o. + CCl4,74.38 ± 3.78 mg %
same,"% protection, GSH",[1]; 2.5 mg/kg p.o. + CCl4,(68.57) %
same,"% protection, LP",[1]; 2.5 mg/kg p.o. + CCl4,(72.76) %
same,GSH (glutathione),[1]; 2.5 mg/kg p.o. + CCl4,6.72 ± 0.28 μ mole GSH/g liver
same,LP (lipid peroxidation),[1]; 2.5 mg/kg p.o. + CCl4,45.46 ± 2.79 n mole MDA/g liver
same,"% protection, ALP",[1]; 2.5 mg/kg p.o. + CCl4,(56.40) %
same,"% protection, Albumin",[1]; 2.5 mg/kg p.o. + CCl4,(56.43) %
same,"% protection, Bilirubin",[1]; 2.5 mg/kg p.o. + CCl4,(53.06) %
same,"% protection, GOT",[1]; 2.5 mg/kg p.o. + CCl4,(58.92) %
same,"% protection, GPT",[1]; 2.5 mg/kg p.o. + CCl4,(59.79) %
same,"% protection, TG",[1]; 2.5 mg/kg p.o. + CCl4,(51.06) %
same,ALP,[1]; 2.5 mg/kg p.o. + CCl4,51.20 ± 1.42 μ mole of p-nitrophenol formed/min/L
same,Albumin,[1]; 2.5 mg/kg p.o. + CCl4,3.55 ± 0.22 g %
same,Bilirubin,[1]; 2.5 mg/kg p.o. + CCl4,0.50 ± 0.03 mg %
same,GOT,[1]; 2.5 mg/kg p.o. + CCl4,471.81 ± 26.40 Units (μ mole pyruvate/min/L)
same,GPT,[1]; 2.5 mg/kg p.o. + CCl4,662.62 ± 39.80 Units (μ mole pyruvate/min/L)
same,TG,[1]; 2.5 mg/kg p.o. + CCl4,59.85 ± 1.88 mg %
same,"% protection, GSH",[1]; 5.0 mg/kg p.o. + CCl4,(74.50) %
same,"% protection, LP",[1]; 5.0 mg/kg p.o. + CCl4,(75.07) %
same,GSH (glutathione),[1]; 5.0 mg/kg p.o. + CCl4,7.02 ± 0.46 μ mole GSH/g liver
same,LP (lipid peroxidation),[1]; 5.0 mg/kg p.o. + CCl4,44.22 ± 1.66 n mole MDA/g liver
same,"% protection, ALP",[1]; 5.0 mg/kg p.o. + CCl4,(67.21) %
same,"% protection, Albumin",[1]; 5.0 mg/kg p.o. + CCl4,(82.14) %
same,"% protection, Bilirubin",[1]; 5.0 mg/kg p.o. + CCl4,(69.38) %
same,"% protection, GOT",[1]; 5.0 mg/kg p.o. + CCl4,(70.49) %
same,"% protection, GPT",[1]; 5.0 mg/kg p.o. + CCl4,(66.08) %
same,"% protection, TG",[1]; 5.0 mg/kg p.o. + CCl4,(68.42) %
same,ALP,[1]; 5.0 mg/kg p.o. + CCl4,46.37 ± 1.89 μ mole of p-nitrophenol formed/min/L
same,Albumin,[1]; 5.0 mg/kg p.o. + CCl4,3.91 ± 0.12 g %
same,Bilirubin,[1]; 5.0 mg/kg p.o. + CCl4,0.42 ± 0.02 mg %
same,GOT,[1]; 5.0 mg/kg p.o. + CCl4,366.89 ± 26.97 Units (μ mole pyruvate/min/L)
same,GPT,[1]; 5.0 mg/kg p.o. + CCl4,573.10 ± 28.25 Units (μ mole pyruvate/min/L)
same,TG,[1]; 5.0 mg/kg p.o. + CCl4,49.31 ± 1.47 mg %
same,overall protection compared with silymarin,[1]; silymarin at 10-20 times the dosage of acteoside,better than that rendered by silymarin
same,GSH (glutathione),"[2]; no CCl4, hepatic",8.33 ± 0.33 μ mole GSH/g liver
same,LP (lipid peroxidation),"[2]; no CCl4, hepatic",30.52 ± 1.38 n mole MDA/g liver
same,ALP,"[2]; no CCl4, serum",31.87 ± 2.15 μ mole of p-nitrophenol formed/min/L
same,Albumin,"[2]; no CCl4, serum",4.66 ± 0.18 g %
same,Bilirubin,"[2]; no CCl4, serum",0.27 ± 0.02 mg %
same,GOT,"[2]; no CCl4, serum",94.71 ± 5.29 Units (μ mole pyruvate/min/L)
same,GPT,"[2]; no CCl4, serum",98.91 ± 5.30 Units (μ mole pyruvate/min/L)
same,TG,"[2]; no CCl4, serum",31.10 ± 2.39 mg %
same,effect on BP,[3],"O: There is no effect on BP and Respiration in the doses of 30 μg, 100 μg, 300 μg and 1 mg I.V. in rat as there is no change in base line."
same,effect on Respiration,[3],"O: There is no effect on BP and Respiration in the doses of 30 μg, 100 μg, 300 μg and 1 mg I.V. in rat as there is no change in base line."
same,effect on 5-HT induced contraction,isolated rat colon,"O: There is no change in the base line against the Histamine, 5-HT and Acetylcholine induced contraction on the isolated rat colon."
same,effect on Acetylcholine induced contraction,isolated rat colon,"O: There is no change in the base line against the Histamine, 5-HT and Acetylcholine induced contraction on the isolated rat colon."
same,effect on Histamine induced contraction,isolated rat colon,"O: There is no change in the base line against the Histamine, 5-HT and Acetylcholine induced contraction on the isolated rat colon."
